Source: the C3SDB collision cross section collection
Values joined by “and” are separate entries in the source; they are usually repeats but may differ in a detail not shown here. Equal values may be shown once.

Details: [M+H]+; instrument: DT; single field, calibrated with ESI Low Concentration Tuning Mix (Agilent)

collision cross section (N2)	SMILES
188.3 Å²	C[C@]12CCC(=O)C=C1CC[C@@H]1[C@@H]2C(=O)C[C@@]2(C)[C@H]1CC[C@]2(O)C(=O)CO [CORTISONE]
152.3 Å² and 158.1 Å²	Nc1ncnc2c1ncn2[C@H]1C[C@H](O)[C@@H](CO)O1 [DEOXYADENOSINE]
155.6 Å² and 161.4 Å²	Nc1ncnc2c1ncn2[C@@H]1O[C@H](CO)[C@@H](O)[C@H]1O [ADENOSINE]
124.9 Å²	NC(N)=NCC(=O)O [GUANIDINOACETATE]
131.1 Å²	N[C@@H](CCC(=O)O)C(=O)O [GLUTAMATE]
138.1 Å²	N[C@@H]1C(O)O[C@H](CO)[C@@H](O)[C@@H]1O (stereo partly drawn) [D-MANNOSAMINE]
134.8 Å²	CC(C)C[C@H](N)C(=O)O [LEUCINE]
172.4 Å²	Nc1nc(=O)c2ncn([C@@H]3O[C@@H]4COP(=O)(O)O[C@H]4[C@H]3O)c2[nH]1 [CYCLIC GMP]
149.4 Å²	N[C@@H](Cc1ccc(O)c(O)c1)C(=O)O [L-DOPA]
130 Å²	NC(N)=NCCCC(=O)O [4-GUANIDINOBUTANOATE]
192 Å²	Nc1nc(=O)c2ncn([C@@H]3O[C@H](COP(=O)(O)OP(=O)(O)O)[C@@H](O)[C@H]3O)c2[nH]1 [GUANOSINE DIPHOSPHATE]
137.1 Å²	NC(CSCC(=O)O)C(=O)O (stereo unspecified) [S-CARBOXYMETHYLCYSTEINE]
142.3 Å²	NCCc1ccc(O)c(O)c1 [DOPAMINE]
198.8 Å²	CC(=O)OCC(=O)[C@@]1(O)CC[C@H]2[C@@H]3CCC4=CC(=O)CC[C@]4(C)[C@H]3[C@@H](O)C[C@@]21C [CORTISOL 21-ACETATE]
196.8 Å²	C[C@H](CCC(=O)NCC(=O)O)[C@H]1CC[C@H]2[C@@H]3[C@H](O)C[C@@H]4C[C@H](O)CC[C@]4(C)[C@H]3CC[C@]12C [GLYCOCHENODEOXYCHOLATE]
163.4 Å²	Nc1nc(=O)c2ncn([C@@H]3O[C@H](CO)[C@@H](O)[C@H]3O)c2[nH]1 [GUANOSINE]
140.4 Å²	O=C(O)c1cc(=O)c2cccc(O)c2[nH]1 [XANTHURENATE]
128.6 Å²	Nc1nc(=O)c2nccnc2[nH]1 [PTERIN]
130.7 Å²	O=c1[nH]c(=O)c2[nH]c(=O)[nH]c2[nH]1 [URATE]
196.2 Å²	Nc1nc(=O)c2nc(CNc3ccc(C(=O)N[C@@H](CCC(=O)O)C(=O)O)cc3)cnc2[nH]1 [FOLATE]
131.2 Å² and 136.9 Å²	Cn1cnc2c1c(=O)[nH]c(=O)n2C [THEOBROMINE]
189 Å²	CCCCCCCCCCCCCCC[C@@H](O)[C@@H](N)CO [SPHINGANINE]
187 Å²	Nc1ncnc2c1ncn2[C@@H]1O[C@H](COP(=O)(O)OP(=O)(O)O)[C@@H](O)[C@H]1O [ADENOSINE 5'-DIPHOSPHATE]
243.9 Å²	C=CC1=C(C)C(/C=c2\[nH]/c(=C\c3[nH]c(/C=C4\NC(=O)C(C)=C4C=C)c(C)c3CCC(=O)O)c(CCC(=O)O)c2C)=NC1=O [BILIVERDIN]
241.3 Å²	C=Cc1c(C)c2cc3[nH]c(cc4nc(cc5nc(cc1[nH]2)C(C)=C5CCC(=O)O)C(CCC(=O)O)=C4C)c(C)c3C=C [PROTOPORPHYRIN]
133.4 Å²	Cn1cnc(C[C@H](N)C(=O)O)c1 [1-METHYL-L-HISTIDINE]
166.5 Å²	CC(=O)N[C@H]1[C@H]([C@H](O)[C@H](O)CO)OC(O)(C(=O)O)C[C@@H]1O (stereo partly specified) [N-ACETYLNEURAMINATE]
129.9 Å²	O=c1[nH]c(=O)c2[nH]cnc2[nH]1 [XANTHINE]
188.4 Å²	Nc1ccn([C@@H]2O[C@H](COP(=O)(O)OP(=O)(O)OP(=O)(O)O)[C@@H](O)[C@H]2O)c(=O)n1 [CYTIDINE TRIPHOSPHATE]
132.4 Å²	O=c1[nH]c(=O)c2nccnc2[nH]1 [2,4-DIHYDROXYPTERIDINE]

SMILES	collision cross section (N2)
CNCCc1c[nH]c2ccccc12 [N-METHYLTRYPTAMINE]	142.5 Å²
COc1cc(CCN)ccc1O [3-METHOXYTYRAMINE]	146.7 Å²
O=C(O)c1ccc(=O)[nH]c1 [6-HYDROXYNICOTINATE]	128.9 Å²
NCCc1cc(O)c(O)cc1O [6-HYDROXYDOPAMINE]	143 Å²

Same assay, conditions: [M+K]+; instrument: DT; single field, calibrated with ESI Low Concentration Tuning Mix (Agilent)

collision cross section (N2) [Å²]	SMILES
149.8	N[C@@H](CCC(=O)O)C(=O)O [GLUTAMATE]
207.2	CC(=O)OCC(=O)[C@@]1(O)CC[C@H]2[C@@H]3CCC4=CC(=O)CC[C@]4(C)[C@H]3[C@@H](O)C[C@@]21C [CORTISOL 21-ACETATE]
174.3	Nc1nc(=O)c2ncn([C@@H]3O[C@H](CO)[C@@H](O)[C@H]3O)c2[nH]1 [GUANOSINE]

Same assay, conditions: [M+Na-2H]-; instrument: DT; single field, calibrated with ESI Low Concentration Tuning Mix (Agilent)

collision cross section (N2) [Å²]	SMILES
131.8	N[C@@H](CCC(=O)O)C(=O)O [GLUTAMATE]
148.9	O=C(O)[C@H](O)[C@@H](O)[C@H](O)[C@H](O)COP(=O)(O)O [6-PHOSPHOGLUCONATE]
184.2	Nc1nc(=O)c2ncn([C@@H]3O[C@H](COP(=O)(O)OP(=O)(O)OP(=O)(O)O)[C@@H](O)[C@H]3O)c2[nH]1 [GUANOSINE TRIPHOSPHATE]
169.7	Nc1nc(=O)c2ncn([C@@H]3O[C@@H]4COP(=O)(O)O[C@H]4[C@H]3O)c2[nH]1 [CYCLIC GMP]
143.3	CC(=O)N[C@@H](CCC(=O)O)C(=O)O [N-ACETYLGLUTAMATE]
186.4	Nc1nc(=O)c2ncn([C@@H]3O[C@H](COP(=O)(O)OP(=O)(O)O)[C@@H](O)[C@H]3O)c2[nH]1 [GUANOSINE DIPHOSPHATE]
136.7	NC(CSCC(=O)O)C(=O)O (stereo unspecified) [S-CARBOXYMETHYLCYSTEINE]
136.4	O=C(O)CC(C(=O)O)C(O)C(=O)O (stereo unspecified) [ISOCITRATE]
201.3	Nc1nc(=O)c2nc(CNc3ccc(C(=O)N[C@@H](CCC(=O)O)C(=O)O)cc3)cnc2[nH]1 [FOLATE]
187.7	Nc1ncnc2c1ncn2[C@@H]1O[C@H](COP(=O)(O)OP(=O)(O)O)[C@@H](O)[C@H]1O [ADENOSINE 5'-DIPHOSPHATE]
171.4	CC(=O)N[C@H]1[C@H]([C@H](O)[C@H](O)CO)OC(O)(C(=O)O)C[C@@H]1O (stereo partly specified) [N-ACETYLNEURAMINATE]
185	Nc1ccn([C@@H]2O[C@H](COP(=O)(O)OP(=O)(O)OP(=O)(O)O)[C@@H](O)[C@H]2O)c(=O)n1 [CYTIDINE TRIPHOSPHATE]

Same assay, conditions: [M+Na]+; instrument: DT; single field, calibrated with ESI Low Concentration Tuning Mix (Agilent)

collision cross section (N2) [Å²]	SMILES
213.2	C[C@]12CCC(=O)C=C1CC[C@@H]1[C@@H]2C(=O)C[C@@]2(C)[C@H]1CC[C@]2(O)C(=O)CO [CORTISONE]
161.6	Nc1ncnc2c1ncn2[C@H]1C[C@H](O)[C@@H](CO)O1 [DEOXYADENOSINE]
165.5	Nc1ncnc2c1ncn2[C@@H]1O[C@H](CO)[C@@H](O)[C@H]1O [ADENOSINE]
134.6	NC(N)=NCC(=O)O [GUANIDINOACETATE]
157.6	O=C(O)[C@H](O)[C@@H](O)[C@H](O)[C@H](O)COP(=O)(O)O [6-PHOSPHOGLUCONATE]
141.3	N[C@@H]1C(O)O[C@H](CO)[C@@H](O)[C@@H]1O (stereo partly drawn) [D-MANNOSAMINE]
142.2	OC[C@@H](O)[C@H](O)[C@H](O)[C@@H](O)CO [GALACTITOL]
184.2	Nc1nc(=O)c2ncn([C@@H]3O[C@@H]4COP(=O)(O)O[C@H]4[C@H]3O)c2[nH]1 [CYCLIC GMP]
147.5	N[C@@H](Cc1ccc(O)c(O)c1)C(=O)O [L-DOPA]
142.4	CC(=O)N[C@@H](CCC(=O)O)C(=O)O [N-ACETYLGLUTAMATE]
188.4	Nc1nc(=O)c2ncn([C@@H]3O[C@H](COP(=O)(O)OP(=O)(O)O)[C@@H](O)[C@H]3O)c2[nH]1 [GUANOSINE DIPHOSPHATE]
138.2	NC(CSCC(=O)O)C(=O)O (stereo unspecified) [S-CARBOXYMETHYLCYSTEINE]
